Test results as given in US4232010A, “Calcium-antagonistic composition” (Kanebo, Ltd., priority 1978, dated 1980).
Like-named read-outs stand apart in the source and are kept apart here.

How the values were obtained:
taenia coli = target: T1, taenia coli (Cavia porcellus, UniProt O35505); assay: Calcium antagonist activity (pA2), isolated guinea-pig taenia coli; conditions: 5 cases, read-out: pA2 (mean ± standard error) of calcium antagonist activity (converted)
T1 construct: a test was conducted using isolated taenia colis about 2 cm long; from tissue; host or cells: isolated guinea-pig taenia coli
T1 sequence (O35505 whole entry): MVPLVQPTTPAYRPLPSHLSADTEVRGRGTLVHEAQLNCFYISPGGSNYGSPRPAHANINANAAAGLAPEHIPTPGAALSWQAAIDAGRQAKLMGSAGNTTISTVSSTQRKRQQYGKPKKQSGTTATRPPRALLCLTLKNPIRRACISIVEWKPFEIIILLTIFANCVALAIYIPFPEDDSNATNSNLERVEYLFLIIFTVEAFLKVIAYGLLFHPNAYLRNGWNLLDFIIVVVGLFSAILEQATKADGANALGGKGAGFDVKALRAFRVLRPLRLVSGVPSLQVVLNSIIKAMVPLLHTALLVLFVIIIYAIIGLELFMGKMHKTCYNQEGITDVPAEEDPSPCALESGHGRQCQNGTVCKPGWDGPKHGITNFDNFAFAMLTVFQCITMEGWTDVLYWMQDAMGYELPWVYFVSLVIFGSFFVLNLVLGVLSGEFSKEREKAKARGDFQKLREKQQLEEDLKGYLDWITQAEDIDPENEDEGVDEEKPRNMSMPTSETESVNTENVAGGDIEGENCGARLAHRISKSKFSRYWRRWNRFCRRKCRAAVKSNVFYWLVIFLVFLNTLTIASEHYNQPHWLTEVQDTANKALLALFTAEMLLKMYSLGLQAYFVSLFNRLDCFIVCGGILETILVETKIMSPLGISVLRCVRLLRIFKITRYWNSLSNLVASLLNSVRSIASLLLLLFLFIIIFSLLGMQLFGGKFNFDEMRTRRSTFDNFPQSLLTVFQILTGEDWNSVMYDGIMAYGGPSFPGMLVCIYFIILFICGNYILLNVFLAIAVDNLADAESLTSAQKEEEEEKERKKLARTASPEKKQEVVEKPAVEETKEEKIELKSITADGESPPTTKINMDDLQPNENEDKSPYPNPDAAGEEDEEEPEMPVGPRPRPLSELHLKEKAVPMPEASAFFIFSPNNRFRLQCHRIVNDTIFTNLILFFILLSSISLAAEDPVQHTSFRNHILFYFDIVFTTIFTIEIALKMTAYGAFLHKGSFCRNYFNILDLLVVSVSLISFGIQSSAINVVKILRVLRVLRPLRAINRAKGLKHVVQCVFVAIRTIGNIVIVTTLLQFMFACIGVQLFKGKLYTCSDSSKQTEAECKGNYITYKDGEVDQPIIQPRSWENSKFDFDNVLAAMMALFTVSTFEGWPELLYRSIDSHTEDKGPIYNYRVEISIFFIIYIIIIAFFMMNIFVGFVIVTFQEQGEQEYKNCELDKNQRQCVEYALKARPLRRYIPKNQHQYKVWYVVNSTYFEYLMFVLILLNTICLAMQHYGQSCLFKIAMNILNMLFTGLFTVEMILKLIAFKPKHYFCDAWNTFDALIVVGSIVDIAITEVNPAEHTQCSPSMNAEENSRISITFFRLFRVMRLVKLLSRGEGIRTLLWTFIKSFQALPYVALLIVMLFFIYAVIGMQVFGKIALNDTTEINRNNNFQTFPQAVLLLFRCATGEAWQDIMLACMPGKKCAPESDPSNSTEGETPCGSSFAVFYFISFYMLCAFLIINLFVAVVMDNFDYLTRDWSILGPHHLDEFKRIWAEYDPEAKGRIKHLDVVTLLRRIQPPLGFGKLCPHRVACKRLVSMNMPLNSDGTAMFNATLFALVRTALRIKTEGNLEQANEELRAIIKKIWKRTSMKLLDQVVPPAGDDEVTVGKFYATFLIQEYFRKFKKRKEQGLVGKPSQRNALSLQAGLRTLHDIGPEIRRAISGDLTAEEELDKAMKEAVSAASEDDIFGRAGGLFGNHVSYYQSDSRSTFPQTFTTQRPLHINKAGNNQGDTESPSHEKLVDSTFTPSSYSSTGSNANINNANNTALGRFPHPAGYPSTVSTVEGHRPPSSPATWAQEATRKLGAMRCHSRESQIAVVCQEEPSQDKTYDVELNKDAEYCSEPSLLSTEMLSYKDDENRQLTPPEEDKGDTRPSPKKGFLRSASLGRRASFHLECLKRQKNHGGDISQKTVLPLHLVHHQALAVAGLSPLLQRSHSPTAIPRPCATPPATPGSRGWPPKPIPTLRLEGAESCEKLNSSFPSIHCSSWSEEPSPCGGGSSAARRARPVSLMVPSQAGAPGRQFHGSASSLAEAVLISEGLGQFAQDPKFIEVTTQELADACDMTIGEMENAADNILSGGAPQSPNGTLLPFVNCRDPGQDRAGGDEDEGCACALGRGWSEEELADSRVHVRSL
Procedure: (§1) Male guinea-pigs weighing 350-450 g each were slaughtered and a test was conducted using isolated taenia colis about 2 cm long. A taenia coli was suspended in a Magnus chamber (Locke solution, 25°±2° C., aerated) and the contractile response of the taenia coli was recodered through an isotonic transducer. To the decalcified taenia coli was cumulatively added 0.1 to 100 mM of calcium in the presence of 6×10^-3 g/ml of K^+ to obtain a dose-contraction curve for calcium and, after the taenia coli was decalcified again, a dose-contraction curve for calcium was determined in the presence of the test compound. Based on the difference between the responses, the pA2 of calcium antagonist activity of the test compound was computed.

[1] = tested on: isolated guinea-pig heart; assay: Action on coronary blood flow, isolated guinea-pig heart (Langendorff); conditions: Cavia porcellus, dosage 10 γ/heart, read-out: Maximum increase in coronary flow (Δ% ± standard error)
Procedure: Male guinea-pigs with body weights from 400 to 500 g were slaughtered and promptly thoractomized. After the ascending aorta was cannulated, the heart was enucleated. By the method of Langendorff, this isolated heart was perfused with the Krebs-Henseleit fluid oxygenated with a gaseous mixture of 95% O2 and 5% CO2 at a fluid temperature of 34°±1° C. and perfusion pressure of 60 cm H2 O, and the test compound was infused. The coronary flows before and after infusion were measured and the percent gain in coronary flow was obtained. The coronary flow was measured with a square-wave electromagnetic flowmeter (Nihon Kohden, MF-26) with an extracorporeal probe (Nihon Kohden, FE) set at the top of the cannula and recorded with a multipurpose polygraph (Nihon Kohden, RM-85). The test compound was dissolved in propylene glycol to a concentration of 100 γ/ml and 0.1 ml of the solution was infused at the rate of 0.1 ml/min.

[2] = Acute toxicity test in mice, intraperitoneal; conditions: mouse, in vivo, ip, male ddY mice, deaths within 72 hours
Procedure: An acute toxicity test was performed in male ddY mice (in groups of 5 animals, body weights 20±2 g) by the intraperitoneal administration of a test compound.
A suspension of each compound in 0.5% carboxymethylcellulose was administered, the deaths within 72 hours were counted and the LD50 values were calculated by the method of Weil.

[3] = target: T2, taenia coli (Cavia porcellus); assay: Calcium antagonist activity (pA2), isolated guinea-pig taenia coli
T2 construct: a test was conducted using isolated taenia colis about 2 cm long; from tissue; host or cells: isolated guinea-pig taenia coli
T2 sequence (O35505 whole entry): as above
Procedure: as §1

[4] = tested on: coronary flow and blood pressure; assay: Action on coronary flow and blood pressure (intravenous administration into dogs); format: in vivo, dog; conditions: 0.2 mg/kg
Procedure: Dogs weighing 11 to 24 kg were anaesthetized with pentobarbital sodium (35 mg/kg, intraperitoneal) and, under supportive respiration, a right thoractomy was performed by removing the fourth rib. The pericardial membrane was then incised to expose the heart. The coronary sinus flow was measured with a cannula inserted from the right auricle into the coronary sinus and connected to an electromagnetic flowmeter (Nihon Kohden K.K., MF-26.) The outflowing blood was returned to the femoral vein through a rubber tubing.
The blood pressure was measured with a pressure transducer (Nihon Kohden K.K., MPU-0.5) connected to the cannula inserted into the femoral artery, and was recorded with a multipurpose polygraph (Nihon Kohden K.K., RM-85) which also recorded the coronary blood flow. The heart rate was calculated based on the electrocardiogram. The test compound was dissolved in dog serum and injected into the femoral vein.

[5] = tested on: coronary flow and blood pressure; assay: Activity on intraduodenal administration to dogs (coronary flow, blood pressure, heart rate); format: in vivo, dog; conditions: 10 mg/kg
Procedure: Dogs weighing 12 to 22 kg were anaesthetized with pentobarbital sodium [35 mg/kg, i.p.] and under supportive respiration, a left thoractomy was performed at the fourth interspace. The pericardium was incised to expose the heart and the blood flow through circumflex branch of left coronary was measured with an electromagnetic flowmeter (Nihon Kohden K.K., MF-26). The blood pressure was measured from a cannula inserted into the carotid artery through a pressure transducer (Nihon Kohden K.K., MPU-0.5), while the heart rate was calculated based on the electrocardiogram. The abdomen was sutured with the end of the cannula left out of the body and the test compound was administered. The test compound was diluted with 0.5% CMC to a concentraion of 10 mg/ml and administered at a dose of 10 mg/kg.

[6] = time after administration 5 (unit not given)
[7] = time after administration 30 (unit not given)
[8] = time after administration 60 (unit not given)
[9] = time after administration 120 (unit not given)

## CC(C)OP(=O)(Cc1ccc(-c2nc3ccccc3s2)cc1)OC(C)C [1-(benzothiazol-2-yl)-4-di-iso-propyloxyphosphinylmethylbenzene]
Taenia coli; test compound 3 × 10^-6 g/ml
  Kb: 776 nM
[1]
  activation at 10 µg/heart: 90.7 ± 31.7%
[2]
  LD50 at 72 h: 1660 mg/kg

## CCCCOP(=O)(Cc1ccc(-c2nc3ccccc3s2)cc1)OCCCC [1-(benzothiazol-2-yl)-4-di-n-butyloxyphosphinylmethylbenzene]
[1]
  activation at 10 µg/heart: 65.1 ± 22.8%
[2]
  LD50 at 72 h: > 2250 mg/kg

## CCCOP(=O)(Cc1ccc(-c2nc3ccccc3s2)cc1)OCCC [1-(benzothiazol-2-yl)-4-di-n-propyloxyphosphinylmethylbenzene]
[1]
  activation at 10 µg/heart: 65.1 ± 12.2%
[2]
  LD50 at 72 h: > 2250 mg/kg

## CCOP(=O)(Cc1ccc(-c2nc3ccccc3s2)cc1)OCC [1-(benzothiazol-2-yl)-4-diethoxyphosphinylmethylbenzene]
[3]
  Kb: 120 nM
[1]
  activation at 10 µg/heart: 83.8 ± 9%
[4]
  Change in heart rate (Δbeats/min. ± standard error): -11.2 ± 2.1 Δbeats/min.
  Increase in coronary senus outflow (Δ% ± standard error): 42.8 ± 6.2 Δ%
  Mean change in blood pressure (ΔmmHg ± standard error): -10.0 ± 3.6 ΔmmHg
[2]
  LD50 at 72 h: 962 mg/kg

## COP(=O)(Cc1ccc(-c2nc3ccccc3s2)cc1)OC [1-(benzothiazol-2-yl)-4-dimethoxyphosphinylmethylbenzene]
[1]
  activation at 10 µg/heart: 38.5 ± 13.6%
[2]
  LD50 at 72 h: 1070 mg/kg

## CC(C)OP(=O)(Cc1ccc(-c2nc3ccccc3s2)nc1)OC(C)C [2-(benzothiazol-2-yl)-5-di-iso-propyloxyphosphinylmethylpyridine]
Taenia coli; test compound 1 × 10^-6 g/ml
  Kb: 2570 nM
[1]
  activation at 10 µg/heart: 79.9 ± 13.1%
[2]
  LD50 at 72 h: > 2250 mg/kg

## CCCCOP(=O)(Cc1ccc(-c2nc3ccccc3s2)nc1)OCCCC [2-(benzothiazol-2-yl)-5-di-n-butyloxyphosphinylmethylpyridine]
Taenia coli; test compound 1 × 10^-6 g/ml
  Kb: 4070 nM
[1]
  activation at 10 µg/heart: 50.3 ± 10.8%

## CCCOP(=O)(Cc1ccc(-c2nc3ccccc3s2)nc1)OCCC [2-(benzothiazol-2-yl)-5-di-n-propyloxyphosphinylmethylpyridine]
Taenia coli; test compound 1 × 10^-6 g/ml
  Kb: 1120 nM
[1]
  activation at 10 µg/heart: 66 ± 21.6%
[2]
  LD50 at 72 h: 713 mg/kg

## CCOP(=O)(Cc1ccc(-c2nc3ccccc3s2)nc1)OCC [2-(benzothiazol-2-yl)-5-diethoxyphosphinylmethylpyridine]
[3]
  Kb: 37.2 nM
[1]
  activation at 10 µg/heart: 98.6 ± 10.6%
[4]
  Change in heart rate (Δbeats/min. ± standard error): -16.3 ± 3.2 Δbeats/min.
  Increase in coronary senus outflow (Δ% ± standard error): 74.4 ± 7.3 Δ%
  Mean change in blood pressure (ΔmmHg ± standard error): -14.5 ± 5.4 ΔmmHg
[5]; [6]
  Change in heart rate (Δbeats/min. ± standard error): -5.6 ± 1.2 Δbeats/min.
  Increase in blood flow through circumflex branch of left coronary (Δ% ± standard error): 14.3 ± 7.4 Δ%
  Mean change in blood pressure (ΔmmHg ± standard error): -12.9 ± 3.4 ΔmmHg
[5]; [7]
  Change in heart rate (Δbeats/min. ± standard error): -23.3 ± 3.8 Δbeats/min.
  Increase in blood flow through circumflex branch of left coronary (Δ% ± standard error): 37.7 ± 9.6 Δ%
  Mean change in blood pressure (ΔmmHg ± standard error): -12.4 ± 2.3 ΔmmHg
[5]; [8]
  Change in heart rate (Δbeats/min. ± standard error): -26.9 ± 3.8 Δbeats/min.
  Increase in blood flow through circumflex branch of left coronary (Δ% ± standard error): 54.4 ± 11.3 Δ%
  Mean change in blood pressure (ΔmmHg ± standard error): -11.0 ± 3.5 ΔmmHg
[5]; [9]
  Change in heart rate (Δbeats/min. ± standard error): -26.4 ± 3.8 Δbeats/min.
  Increase in blood flow through circumflex branch of left coronary (Δ% ± standard error): 50.7 ± 12.7 Δ%
  Mean change in blood pressure (ΔmmHg ± standard error): -11.2 ± 3.9 ΔmmHg
[2]
  LD50 at 72 h: 1060 mg/kg

## COP(=O)(Cc1ccc(-c2nc3ccccc3s2)nc1)OC [2-(benzothiazol-2-yl)-5-dimethoxyphosphinylmethylpyridine]
[1]
  activation at 10 µg/heart: 28.6 ± 3.8%

## COc1ccc([C@@H]2Sc3ccccc3N(CCN(C)C)C(=O)[C@@H]2OC(C)=O)cc1 [Diltiazem, reference compound]
[1]
  activation at 10 µg/heart: 66 ± 7.1%
[4]
  Change in heart rate (Δbeats/min. ± standard error): -20.5 ± 7.8 Δbeats/min.
  Increase in coronary senus outflow (Δ% ± standard error): 67.9 ± 8.5 Δ%
  Mean change in blood pressure (ΔmmHg ± standard error): -21.4 ± 6.1 ΔmmHg
[5]; [6]
  Change in heart rate (Δbeats/min. ± standard error): 1.6 ± 2.0 Δbeats/min.
  Increase in blood flow through circumflex branch of left coronary (Δ% ± standard error): 1.8 ± 1.8 Δ%
  Mean change in blood pressure (ΔmmHg ± standard error): -2.4 ± 1.3 ΔmmHg
[5]; [7]
  Change in heart rate (Δbeats/min. ± standard error): -13.2 ± 1.2 Δbeats/min.
  Increase in blood flow through circumflex branch of left coronary (Δ% ± standard error): 34.4 ± 8.2 Δ%
  Mean change in blood pressure (ΔmmHg ± standard error): -11.0 ± 1.3 ΔmmHg
[5]; [8]
  Increase in blood flow through circumflex branch of left coronary (Δ% ± standard error): 33.0 ± 12.2 Δ%
  Mean change in blood pressure (ΔmmHg ± standard error): -14.4 ± 2.3 ΔmmHg
[5]; [9]
  Change in heart rate (Δbeats/min. ± standard error): -23.6 ± 4.0 Δbeats/min.
  Increase in blood flow through circumflex branch of left coronary (Δ% ± standard error): 34.8 ± 15.1 Δ%
  Mean change in blood pressure (ΔmmHg ± standard error): -16.0 ± 4.7 ΔmmHg
